Assay results: patent US8455397B2, “Penoxsulam as a turfgrass, vineyard and orchard floor herbicide” (Dow AgroSciences, LLC, priority 2005, dated 2013)

Assays:
turfgrass = settings: in vivo
sun spurge (EPHHE) = experiment: Pre-emergence orchard floor weeds, greenhouse study; format: in vivo, Euphorbia helioscopia; settings: 28 Days After Application
Experimental: (§1) Greenhouse studies were conducted by seeding species in a loam soil and applying the herbicides to the soil surface using a Cornwall 5 milliliter glass syringe fitted with a TeeJet TN-3 nozzle on an area basis Immediately following herbicide application the pots were irrigated over the top to move the herbicides into the seeding zone. Pots were kept well irrigated throughout the trial. A percent visual weed control assessment was taken 4 weeks after application. Control was determined visually by comparing treated and untreated pots and scored on a 0 to 100 percent scale where 0 corresponds to no control and 100 corresponds to complete kill, or no emergence.

[1] = tested on: vine and orchard floor weeds; experiment: Vine and orchard floor weed control (general statement); format: in vivo; settings: APESV, AMARE, POROL, SETFA, ECHCG, ECHCO, SSYIR, SINAR, EPHHE, EROCI, MALNE, MALPA, SONOL, SENVU
common purslane (POROL) = experiment: Pre-emergence weed nursery field study; format: in vivo, Portulaca oleracea; settings: weed nursery in the field, 27 Days After Application
Experimental: (§2) Field studies were conducted in a non-fumigated weed nursery trial. Weed species were planted in single strips with a row planter at 36 centimeter spacing. Plot size was 3.05×9.2 meters, 4 replicate plots per treatment. Weed species were seeded at appropriate depths and later the same day pre-emergent applications were made to the soil surface. Liquid applications were made using a backpack sprayer calibrated to deliver 187 liters per hectare (L/ha). Applications were made in Fresno, Calif. in June. Sprinkler irrigation was applied at regular intervals throughout study period. Control of each weed species in the study site was made 4 weeks after treatment. Control was determined visually by comparing treated and untreated weeds and scored on a 0 to 100 percent scale where 0 corresponds to no control and 100 corresponds to complete kill or no emergence.

little mallow (MALPA) = experiment: Pre-emergence orchard floor weeds, greenhouse study; format: in vivo, Malva parviflora; settings: 28 Days After Application
Experimental: as §1

[2] = tested on: buckhorn plantain (PLALA); experiment: Postemergent granule herbicides, turfgrass field studies; format: in vivo, Plantago lanceolata L.; settings: Table I, 3 sites, Penoxsulam 140 gai/Ha, Scotts Plus 2 1682+841 gae/Ha, Trimec 1121+516+112 gae/Ha
Experimental: (§3) Field studies were conducted in established turfgrass sites containing a natural population of target broadleaf weeds. Replicated trials, containing a minimum of three replications and having individual plots ranging in size from 25 to 50 ft. sq (2.3 to 4.6 square meters), were initiated in the late spring when turf and weeds were actively growing. Granule treatments were uniformly applied to individual plots using a common hand-shaker method. Applications were made in the early morning when dew was present. Natural rainfall and supplemental irrigation were used to maintain healthy turf and active weed growth throughout the study period. Control of each weed species in the study site was made at 2, 4 and 8 weeks after treatment. Control was determined visually by comparing treated and untreated weeds and scored on a 0 to 100 percent scale where 0 corresponds to no control and 100 corresponds to complete kill.

white clover (TRFRE) = experiment: Granule carrier/particle size, post emergence greenhouse study; format: in vivo, Trifolium repens L.; settings: postemergent greenhouse
Experimental: (§4) Greenhouse and field studies evaluated the effect of two granule carriers and two particles sizes on the postemergent broadleaf activity of penoxsulam. The two carriers were a 46-0-0 and 28-4-12 fertilizer blend and the particle sizes averaged 0.75 mm and 2.15 mm.
(§5) Greenhouse studies were applied both post and pre-emergence to broadleaf weeds and sedge reared from seed or nutlet in 12.7″ (32.25 cm) by 8.8″ (22.35 cm) flats of a loam soil. Particle size and carrier were evaluated post emergence, carrier comparisons with the smaller particle size of 0.75 was evaluated pre-emergence. Stage of growth of species at post emergence application: PLAMA and TAROF in the 3 to 5 leaf stage, TRFRE in the 3rd tri-foliate stage and CYPES in the 3 to 4 leaf stage. Post emergence trial design was a replicated block, one species per flat, 3 replicate flats per treatment. Granule treatments were uniformly applied to individual flats on an area basis using a common hand-shaker method. Post emergence applications were made to the flat covering both soil and misted foliage. Trial was sub-irrigated daily, and watered over the top 1 time per week starting 7 days after application to simulate a natural rainfall event. Active weed growth was maintained throughout the study period. Weed control of each species in the post emergence study was assessed at 2, 3 and 4 weeks after treatment. Pre-emergence trial design was 2 species per flat, 4 replicate flats, block design. Pre-emergence applications were made to the soil surface using a common hand shaker method on an area basis. Overhead irrigation was maintained throughout the trial. Weed control of each species in the pre-emergence study was assessed at 2, 3, 4 and 5 weeks after application. Control was determined visually by comparing treated and untreated flats and scored on a 0 to 100 percent scale where 0 corresponds to no control and 100 corresponds to complete kill.

[3] = tested on: broadleaf plantain (PLAMA); experiment: Granule carrier comparison, pre-emergence greenhouse study; format: in vivo, Plantago major L.; settings: pre-emergent greenhouse
Experimental: as §4, §5

barnyardgrass (ECHCG) = experiment: Pre-emergence weed nursery field study; format: in vivo, Echinochloa crus-galli; settings: weed nursery in the field, 27 Days After Application
Experimental: as §2

junglerice (ECHCO) = experiment: Pre-emergence weed nursery field study; format: in vivo, Echinochloa colonum; settings: weed nursery in the field, 27 Days After Application
Experimental: as §2

[4] = tested on: pennywort (dollarweed) (HYDSS); experiment: Granule carrier/particle size, postemergent field study; format: in vivo, Hydrocotyle spp
Experimental: as §4, §3

[5] = carrier 28-4-12, particle size 0.75 mm, 5.6 gai/Ha
[6] = carrier 28-4-12, particle size 0.75 mm, 11.2 gai/Ha
[7] = carrier 28-4-12, particle size 0.75 mm, 22.4 gai/Ha
[8] = carrier 28-4-12, particle size 2.15 mm, 11.2 gai/Ha
[9] = carrier 28-4-12, particle size 2.15 mm, 22.4 gai/Ha
[10] = carrier 46-0-0, particle size 0.75 mm, 5.6 gai/Ha
[11] = carrier 46-0-0, particle size 0.75 mm, 11.2 gai/Ha
[12] = carrier 46-0-0, particle size 0.75 mm, 22.4 gai/Ha
[13] = carrier 46-0-0, particle size 2.15 mm, 11.2 gai/Ha
[14] = carrier 46-0-0, particle size 2.15 mm, 22.4 gai/Ha

COc1cnc(OC)n2nc(NS(=O)(=O)c3c(OCC(F)F)cccc3C(F)(F)F)nc12 [Penoxsulam, 2-(2,2-difluoroethoxy)-N-(5,8-dimethoxy[1,2,4]triazolo[1,5-c]-pyrimidin-2-yl)-6-(trifluoromethyl)benzenesulfonamide]
damage to mature, well-established turfgrass (turfgrass): acceptable or no damage
Pre-emergent Percent Mean Control (sun spurge (EPHHE); 8.8 gai/Ha): 87%
Pre-emergent Percent Mean Control (sun spurge (EPHHE); 17.5 gai/Ha): 97%
Pre-emergent Percent Mean Control (sun spurge (EPHHE); 35 gai/Ha): 98%
Pre-emergent Percent Mean Control (sun spurge (EPHHE); 70 gai/Ha): 100%
effectiveness in controlling vine and orchard floor weeds [1]: effective
Pre-emergent Percent Mean Control (common purslane (POROL); 8.8 gai/Ha): 96%
Pre-emergent Percent Mean Control (common purslane (POROL); 17.5 gai/Ha): 97%
Pre-emergent Percent Mean Control (common purslane (POROL); 35 gai/Ha): 99%
Pre-emergent Percent Mean Control (common purslane (POROL); 70 gai/Ha): 100%
Pre-emergent Percent Mean Control (little mallow (MALPA); 8.8 gai/Ha): 74%
Pre-emergent Percent Mean Control (little mallow (MALPA); 17.5 gai/Ha): 87%
Pre-emergent Percent Mean Control (little mallow (MALPA); 35 gai/Ha): 93%
Pre-emergent Percent Mean Control (little mallow (MALPA); 70 gai/Ha): 100%
Mean Percent Weed Control ([2]; 4 Weeks After Treatment): 53%
Mean Percent Weed Control ([2]; 8 Weeks After Treatment): 62%
Percent Weed Control 27-30 DAA (white clover (TRFRE); [5]): 40%
Percent Weed Control 27-30 DAA (white clover (TRFRE); [6]): 57%
Percent Weed Control 27-30 DAA (white clover (TRFRE); [7]): 68%
Percent Weed Control 27-30 DAA (white clover (TRFRE); carrier 28-4-12, particle size 2.15 mm, 5.6 gai/Ha): 12%
Percent Weed Control 27-30 DAA (white clover (TRFRE); [8]): 38%
Percent Weed Control 27-30 DAA (white clover (TRFRE); [9]): 58%
Percent Weed Control 27-30 DAA (white clover (TRFRE); [10]): 22%
Percent Weed Control 27-30 DAA (white clover (TRFRE); [11]): 58%
Percent Weed Control 27-30 DAA (white clover (TRFRE); [12]): 72%
Percent Weed Control 27-30 DAA (white clover (TRFRE); carrier 46-0-0, particle size 2.15 mm, 5.6 gai/Ha): 5%
Percent Weed Control 27-30 DAA (white clover (TRFRE); [13]): 33%
Percent Weed Control 27-30 DAA (white clover (TRFRE); [14]): 37%
Percent Weed Control 35 DAA [3, 5]: 72%
Percent Weed Control 35 DAA [3, 6]: 82%
Percent Weed Control 35 DAA [3, 7]: 100%
Percent Weed Control 35 DAA [3, 10]: 76%
Percent Weed Control 35 DAA [3, 11]: 87%
Percent Weed Control 35 DAA [3, 12]: 94%
Pre-emergent Percent Mean Control (barnyardgrass (ECHCG); 8.8 gai/Ha): 87%
Pre-emergent Percent Mean Control (barnyardgrass (ECHCG); 17.5 gai/Ha): 96%
Pre-emergent Percent Mean Control (barnyardgrass (ECHCG); 35 gai/Ha): 98%
Pre-emergent Percent Mean Control (barnyardgrass (ECHCG); 70 gai/Ha): 100%
Pre-emergent Percent Mean Control (junglerice (ECHCO); 8.8 gai/Ha): 88%
Pre-emergent Percent Mean Control (junglerice (ECHCO); 17.5 gai/Ha): 94%
Pre-emergent Percent Mean Control (junglerice (ECHCO); 35 gai/Ha): 100%
Pre-emergent Percent Mean Control (junglerice (ECHCO); 70 gai/Ha): 100%
Percent Weed Control 26-27 DAA [4, 6]: 56%
Percent Weed Control 26-27 DAA [4, 7]: 70%
Percent Weed Control 26-27 DAA [4, 8]: 49%
Percent Weed Control 26-27 DAA [4, 9]: 42%
Percent Weed Control 26-27 DAA [4, 11]: 44%
Percent Weed Control 26-27 DAA [4, 12]: 87%
Percent Weed Control 26-27 DAA [4, 13]: 38%
Percent Weed Control 26-27 DAA [4, 14]: 75%
